# Assay results taken from patent US9890432B2, “PRDM14 and FAM19A4, molecular diagnostic markers for HPV-induced invasive cancers and their high-grade precursor lesions” (SELF-SCREEN B.V., priority 2013, dated 2018).
# “Also recorded” adds a separate entry of the source.
# Test system: PRDM14 mRNA expression in SiHa cervical cancer cells
# Test: PRDM14 mRNA expression in SiHa cells after treatment with a DNA methylation inhibitor
# Type: cell-based, human
# Settings: DAC at 0.2 μM and 5 μM, controls PBS and ethanol
# Description: Treatment of SiHa cervical cancer cells was performed with the methylation inhibitor 2′-deoxy-5′azacytidine (5′-aza or DAC) at 0.2 μM and 5 μM concentration. Other treatments were PBS and ethanol (EtOH). All treatments were in duplicate. Controls are human reference RNA and a -RT control (without reverse transcriptase added to the cDNA reaction mixture).
smiles,measurement,value
"Nc1ncn([C@H]2C[C@H](O)[C@@H](CO)O2)c(=O)n1 [DAC, 5-aza-2 deoxycytidine]",PRDM14 mRNA expression,upregulated; also recorded: upregulation
